Laboratory results reported in patent publication US20130131075A1, “NEW COMPOUNDS” (Boehringer Ingelheim International GmbH, priority 2009, published 2013).

Target: T1, cynomolgus BK1-receptor (Macaca fascicularis, UniProt Q3BCU0)
T1 construct: expressed in transfected cells; host or cells: CHO cells (homogenate)
T1 sequence (Q3BCU0 1-352): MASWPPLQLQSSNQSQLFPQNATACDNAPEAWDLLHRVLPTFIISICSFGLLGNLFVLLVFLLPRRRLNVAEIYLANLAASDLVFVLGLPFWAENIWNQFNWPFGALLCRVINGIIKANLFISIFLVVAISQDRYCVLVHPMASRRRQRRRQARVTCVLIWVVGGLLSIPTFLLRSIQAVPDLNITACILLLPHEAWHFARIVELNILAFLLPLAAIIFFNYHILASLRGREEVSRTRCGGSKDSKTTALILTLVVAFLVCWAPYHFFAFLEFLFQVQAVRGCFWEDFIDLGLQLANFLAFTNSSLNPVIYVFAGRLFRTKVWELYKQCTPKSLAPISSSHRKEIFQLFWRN
Assay: cynoBK1-receptor binding assay
Conditions: CHO cells expressing cynomolgus BK1-receptor, radioligand kallidine (DesArg10,Leu9); for inhibition at 10 µM: at 10 μgmol/L
Description: Description of the Method of Binding the cynoBK1-Receptor
CHO cells that express the cynomolgus BK1-receptor are cultivated in “HAM'S F-12 Medium”. The medium is removed from confluent cultures, the cells are washed with PBS buffer, scraped off or detached using Versene and isolated by centrifuging. Then the cells are homogenised in suspension, the homogenate is centrifuged and resuspended. After the protein content has been determined 200 μl of the homogenate (50 to 250 μg protein/assay) are incubated for 60-180 minutes at ambient temperature with 0.5 to 5.0 nM kallidine (DesArg10,Leu9), [3,4-Prolyl-3,43H(N)] and increasing concentrations of the test substance in a total volume of 250 μl. The incubation is stopped by rapid filtration through GF/B glass fibre filters that have been pre-treated with polyethyleneimine (0.3%). The radioactivity bound to the protein is measured with a TopCount NXT. The radioactivity bound in the presence of 1.0 μM kallidine (DesArg10) is defined as non-specific binding. The concentration binding curve may be analysed using computer-aided non-linear curve fitting to determine the corresponding Ki value for the test substance.
Test results of the cynoBK1-receptor binding assay: […]

Row | Structure (SMILES) | Ki | inhibition at 10 µM
1 | Nc1ccc(C(=O)N[C@@]2(C(=O)NCc3ncc(Nc4ccc(F)cc4C(F)(F)F)cc3F)CCOC2)cn1 [(348)] | 0.031 µM | –
2 | N#Cc1cc(OC(F)(F)F)ccc1Nc1ccc(CNC(=O)C2(NC(=O)c3cncnc3)CC2)cc1 [(161)] | > 0.5 µM | 69%
3 | Nc1cncc(C(=O)N[C@@]2(C(=O)NCc3ccc(Nc4ccc(Cl)cc4C(F)(F)F)cn3)CCOC2)c1 [(226)] | 0.157 µM | –
4 | Cc1ccc(Nc2ccc(CNC(=O)C3(NC(=O)c4cncnc4)CC3)nc2)c(Cl)c1 [(189)] | > 0.5 µM | 96%
5 | CC(C#N)C(=O)NC1(C(=O)NCc2ccc(Nc3ccc(F)cc3C(F)(F)F)cn2)CC1 (centres unmarked) [(170)] | 0.035 µM | 104%
6 | CNc1cc(C(=O)NC2(C(=O)NCc3ccc(Nc4ccc(F)cc4C(F)(F)F)cn3)CC2)cnn1 [(227)] | 0.097 µM | –
7 | O=C(Cc1ccccn1)N[C@@]1(C(=O)NCc2ccc(Nc3ccccc3C(F)(F)F)cc2)CCOC1 [(59)] | – | 22%
8 | Nc1cncc(C(=O)NC2(C(=O)NCc3ncc(Nc4ccc(F)cc4C(F)(F)F)cc3F)CC2)c1 [(152)] | 0.0032 µM | 105%
9 | O=C(N[C@@]1(C(=O)NCc2ccc(Nc3ccccc3C(F)(F)F)cc2)CCOC1)c1cccc(Cl)n1 [(67)] | – | 63%
10 | COc1ncc(C(=O)N[C@@]2(C(=O)NCc3ncc(Nc4ccc(Cl)cc4C(F)(F)F)cc3F)CCOC2)cn1 [(314)] | 0.015 µM | –
11 | CNc1ncc(C(=O)N[C@@]2(C(=O)NCc3ncc(Nc4ccc(Cl)cc4C(F)(F)F)cc3Cl)CCOC2)cn1 [(281)] | 0.021 µM | –
12 | O=C(N[C@@]1(C(=O)NCc2ccc(Nc3ccc(F)cc3C(F)(F)F)cc2)CCOC1)c1cncnc1 [(287)] | 0.011 µM | –
13 | COc1ccc(N(C)c2ccc(CNC(=O)C3(NC(=O)c4cncnc4)CC3)cc2)cc1 [(112)] | – | 45%
14 | N#Cc1ccccc1Nc1ccc(CNC(=O)C2(NC(=O)c3cncnc3)CC2)c(F)c1 [(296)] | 0.028 µM | –
15 | Cc1ncc(C(=O)NC2(C(=O)NCc3ccc(Nc4ccc(F)cc4C#N)cc3)CC2)cn1 [(181)] | 0.019 µM | 99%
16 | Cc1ncc(C(=O)NC2(C(=O)NCc3ncc(Nc4ccc(F)cc4C(F)(F)F)cc3C)CC2)cn1 [(344)] | 0.0019 µM | –
17 | Nc1cncc(C(=O)NC2(C(=O)NCc3ccc(Nc4ccc(F)cc4C(F)(F)F)cn3)CC2)n1 [(144)] | 0.126 µM | 97%
18 | O=C(NC1(C(=O)NCc2ccc(Nc3ccc(C(F)(F)F)cc3C(F)(F)F)cn2)CC1)c1cncnc1 [(52)] | 0.312 µM | 63%
19 | CS(=O)(=O)c1ccc(Nc2ccc(CNC(=O)C3(NC(=O)c4cncnc4)CC3)cc2)c(C(F)(F)F)c1 [(32)] | 0.2 µM | 93%
20 | COc1ncc(C(=O)NC2(C(=O)NCc3ccc(Nc4ccc(Cl)cc4C(F)(F)F)cn3)CC2)cn1 [(146)] | 0.0076 µM | 107%
21 | O=C(NC1(C(=O)NCc2ccc(Nc3ccc(Br)cc3C(F)(F)F)cn2)CC1)c1cc(O)nc(O)n1 [(176)] | – | 100%

Row | Structure (SMILES) | Ki | inhibition at 10 µM
22 | Cn1cnc2cc(C(=O)NC3(C(=O)NCc4ccc(Nc5ccc(Cl)cc5C(F)(F)F)cn4)CC3)ccc21 [(264)] | 0.06 µM | –
23 | O=C(NC1(C(=O)NCc2ccc(Nc3ccc(Br)cc3C(F)(F)F)cn2)CC1)c1cccc(O)n1 [(140)] | 0.014 µM | 106%
24 | N#Cc1ccccc1Nc1ccc(CNC(=O)C2(NC(=O)c3cncnc3)CC2)cc1 [(35)] | 0.07 µM | 111%
25 | Nc1cncc(C(=O)NC2(C(=O)NCc3ccc(Nc4ccc(F)cc4C(F)(F)F)cn3)CC2)c1 [(142)] | 0.012 µM | 106%
26 | N#Cc1ncc(C(=O)NC2(C(=O)NCc3ccc(Nc4ccc(Cl)cc4C(F)(F)F)cn3)CC2)cn1 [(385)] | 0.0094 µM | –
27 | CNc1ncc(C(=O)N[C@@]2(C(=O)NCc3ncc(Nc4ccc(Cl)cc4C(F)(F)F)cc3F)CCOC2)cn1 [(276)] | 0.017 µM | –
28 | Cc1cc(C(=O)NC2(C(=O)NCc3ccc(Nc4ccc(F)cc4C(F)(F)F)cn3)CC2)cnc1N [(391)] | 0.0093 µM | –
29 | Nc1cc(C(=O)NC2(C(=O)NCc3ccc(Nc4ccc(F)cc4C(F)(F)F)cn3)CC2)cnn1 [(262)] | 0.037 µM | –
30 | Nc1ncc(C(=O)NC2(C(=O)NCc3ccc(Nc4ccc(F)cc4C(F)(F)F)cn3)CC2)s1 [(184)] | – | 99%
31 | O=C(N[C@@]1(C(=O)NCc2ccc(Nc3ccccc3C(F)(F)F)cc2)CCOC1)c1cncs1 [(89)] | – | 96%
32 | N#C/C(=N\O)C(=O)N[C@@]1(C(=O)NCc2ccc(Nc3ccccc3C(F)(F)F)cc2)CCOC1 [(66)] | – | 81%
33 | CC(C)c1ncc(C(=O)N[C@@]2(C(=O)NCc3ccc(Nc4ccc(F)cc4C(F)(F)F)cc3)CCOC2)cn1 [(310)] | 0.039 µM | –
34 | Nc1ccc(C(=O)NC2(C(=O)NCc3ccc(Nc4ccc(F)cc4C(F)(F)F)cn3)CC2)cn1 [(244)] | 0.0084 µM | –
35 | COc1ccc(C(=O)N[C@@]2(C(=O)NCc3ccc(Nc4ccccc4C(F)(F)F)cc3)CCOC2)cc1 [(99)] | – | 96%
36 | O=C(NC1(C(=O)NCc2ccc(Nc3ccccc3C(F)(F)F)cn2)CC1)c1cncnc1 [(39)] | 0.0055 µM | 110%
37 | Cc1ncc(C(=O)N[C@@]2(C(=O)NCc3ncc(Nc4ccc(Cl)cc4C(F)(F)F)cc3F)CCOC2)cn1 [(277)] | 0.01 µM | –
38 | Nc1cncc(C(=O)N[C@@]2(C(=O)NCc3ccc(Nc4ccccc4C(F)(F)F)cc3F)CCOC2)c1 [(236)] | 0.0082 µM | –
39 | O=C(NC1(C(=O)NCc2ccc(Nc3ccc(F)cc3C(F)(F)F)cn2)CC1)c1ccc(Cl)nc1 [(253)] | 0.049 µM | –
40 | O=C(N[C@@]1(C(=O)NCc2ccc(Nc3c(F)cccc3C(F)(F)F)cn2)CCOC1)c1cncnc1 [(46)] | 0.29 µM | 88%
41 | Cc1ncc(C(=O)N[C@@]2(C(=O)NCc3ccc(Nc4ccc(F)cc4C(F)(F)F)cc3F)CCOC2)cn1 [(274)] | 0.004 µM | –
42 | CNc1cncc(C(=O)N[C@@]2(C(=O)NCc3ncc(Nc4c(F)cccc4C(F)(F)F)cc3Cl)CCOC2)c1 [(259)] | 0.394 µM | –

Row | Structure (SMILES) | Ki | inhibition at 10 µM
43 | O=C(NC1(C(=O)NCc2ccc(Nc3ccc(Cl)cc3C(F)(F)F)cn2)CC1)c1ccnnc1 [(209)] | 0.073 µM | –
44 | O=C(NC1(C(=O)NCc2ccc(Nc3ccc(Cl)cc3C(F)(F)F)cn2)CC1)c1ccno1 [(369)] | 0.037 µM | –
45 | Nc1cncc(C(=O)N[C@@]2(C(=O)NCc3ncc(Nc4ccccc4C(F)(F)F)cc3Cl)CCOC2)c1 [(229)] | 0.027 µM | –
46 | CC(NC(=O)[C@]1(NC(=O)c2cncnc2)CCOC1)c1ccc(Nc2ccc(Br)cc2C(F)(F)F)cn1 (some centres unmarked) [(188)] | 0.043 µM | 92%
47 | CCNC(=O)NC1(C(=O)NCc2ccc(Nc3ccccc3C(F)(F)F)cc2)CC1 [(108)] | 0.135 µM | 101%
48 | O=C1CCC(C(=O)N[C@@]2(C(=O)NCc3ccc(Nc4ccccc4C(F)(F)F)cc3)CCOC2)N1 (some centres unmarked) [(56)] | – | 99%
49 | COC(=O)c1ccc(Nc2ccc(CNC(=O)C3(NC(=O)c4cncnc4)CC3)nc2)c(C(F)(F)F)c1 [(196)] | > 0.5 µM | 82%
50 | Cc1ncc(C(=O)NC2(C(=O)NCc3ccc(Nc4ccc(F)cc4C(F)(F)F)cc3F)CC2)cn1 [(283)] | 0.0013 µM | –
51 | O=C(NC1(C(=O)NCc2ccc(Nc3ccc(Cl)cc3C(F)(F)F)cn2)CC1)c1ccc(NC2CC2)nc1 [(389)] | 0.015 µM | –
52 | Cc1ccc(C(=O)N[C@@]2(C(=O)NCc3ccc(Nc4ccccc4C(F)(F)F)cc3)CCOC2)cn1 [(58)] | – | 109%
53 | O=C(N[C@@]1(C(=O)NCc2ncc(Nc3ccc(Cl)cc3C(F)(F)F)cc2F)CCOC1)c1cncnc1 [(242)] | 0.015 µM | –
54 | O=C(CC(F)(F)F)N[C@@]1(C(=O)NCc2ncc(Nc3c(F)cccc3C(F)(F)F)cc2Cl)CCOC1 [(261)] | 0.456 µM | –
55 | Cc1nnc(C(=O)NC2(C(=O)NCc3ccc(Nc4ccccc4C(F)(F)F)cc3)CC2)o1 [(27)] | – | 104%
56 | CNc1ncc(C(=O)NC2(C(=O)NCc3ccc(Nc4ccc(F)cc4C#N)cc3)CC2)cn1 [(183)] | 0.021 µM | 100%
57 | O=C(NC1(C(=O)NCc2ccc(Nc3ccc(Cl)cc3C(F)(F)F)cn2)CC1)c1ccc(O)nc1 [(239)] | 0.182 µM | –
58 | CN(C)c1cc(C(=O)NC2(C(=O)NCc3ccc(Nc4ccc(F)cc4C(F)(F)F)cn3)CC2)cnn1 [(252)] | 0.12 µM | –
59 | O=C(NC1(C(=O)NCc2ccc(Nc3ccc(Cl)cc3Br)cn2)CC1)c1cncnc1 [(167)] | 0.019 µM | 104%
60 | Cn1cc(C(=O)NC2(C(=O)NCc3ccc(Nc4ccc(Cl)cc4C(F)(F)F)cn3)CC2)cn1 [(373)] | 0.095 µM | –
61 | N#Cc1cc(F)ccc1Nc1cnc(CNC(=O)C2(NC(=O)c3cncnc3)CC2)c(F)c1 [(160)] | 0.017 µM | 106%
62 | CC(C)Oc1ccc(Nc2ccc(CNC(=O)C3(NC(=O)c4cncnc4)CC3)cc2)c(C(F)(F)F)c1 [(119)] | 0.375 µM | 82%
